# In ChEMBL document CHEMBL1128932, “Liposome-like fucopeptides as sialyl lewis X mimetics” (Bioorg Med Chem Lett, 1996):
# How the values were obtained:
# [1] = target: T1, E-selectin (Homo sapiens, UniProt P16581); experiment: Inhibitory activity against Selectin E
# T1 sequence (P16581 whole entry): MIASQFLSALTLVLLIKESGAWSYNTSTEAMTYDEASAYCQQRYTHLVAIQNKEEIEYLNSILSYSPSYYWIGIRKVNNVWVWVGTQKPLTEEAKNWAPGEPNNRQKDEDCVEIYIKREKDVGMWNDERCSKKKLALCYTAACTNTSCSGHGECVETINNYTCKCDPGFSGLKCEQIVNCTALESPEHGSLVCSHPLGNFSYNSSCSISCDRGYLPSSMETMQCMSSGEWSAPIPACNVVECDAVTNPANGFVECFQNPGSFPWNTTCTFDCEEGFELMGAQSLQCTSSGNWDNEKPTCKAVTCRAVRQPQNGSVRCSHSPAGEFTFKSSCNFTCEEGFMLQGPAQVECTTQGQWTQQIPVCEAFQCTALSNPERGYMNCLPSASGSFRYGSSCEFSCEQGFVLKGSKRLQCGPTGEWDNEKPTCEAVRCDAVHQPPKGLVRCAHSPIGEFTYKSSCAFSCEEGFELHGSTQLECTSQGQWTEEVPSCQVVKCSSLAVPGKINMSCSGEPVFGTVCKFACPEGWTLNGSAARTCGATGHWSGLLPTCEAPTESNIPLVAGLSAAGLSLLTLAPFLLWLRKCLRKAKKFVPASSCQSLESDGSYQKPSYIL
# [2] = target: T1, E-selectin; experiment: Ability to inhibit sialyl Lewis X binding to Selectin E was determined
SMILES,IC50 [1] [µM],IC50 [2] [µM]
CCOC(=O)[C@@H](NC(=O)[C@H]1C[C@@H](O)CN1C(=O)CCCC(=O)O)[C@@H](C)O[C@@H]1O[C@@H](C)[C@@H](O)C(O)C1O (some centres not stated),3000,–
CCOC(=O)[C@@H](NC(=O)[C@@H]1[C@@H](O)[C@@H](O)CN1C(=O)CCCC(=O)O)[C@@H](C)O[C@@H]1O[C@@H](C)[C@@H](O)C(O)C1O (some centres not stated),50,–
CCOC(=O)[C@@H](NC(=O)[C@@H]1C[C@@H](O)CN1C(=O)CCCC(=O)O)[C@@H](C)O[C@@H]1O[C@@H](C)[C@@H](O)C(O)C1O (some centres not stated),300,–
CCCCCCCCCCCCCCCCOC(=O)CC[C@H](NC(=O)CNC(=O)[C@@H](NC(=O)[C@H]1C[C@H](O)CN1C(=O)CCCC(=O)O)[C@@H](C)O[C@@H]1O[C@@H](C)[C@@H](O)C(O)C1O)C(=O)OCCCCCCCCCCCCCCCC (some centres not stated),500,–
C[C@@H]1O[C@@H](O[C@@H]2CCCC[C@H]2NC(=O)[C@@H]2[C@@H](O)[C@@H](O)CN2C(=O)CCCC(=O)O)C(O)C(O)[C@@H]1O (some centres not stated),5000,–
"CCOC(=O)[C@@H](NC(=O)C1C[C@@H](O)CN1C(=O)CCCC(=O)O)[C@@H](C)O[C@H]1O[C@@H](C)[C@@H](O)C(O)C1O (single isomer, unassigned)",100,–
CCOC(=O)[C@@H](NC(=O)[C@H](NC(=O)CCCC(=O)O)[C@@H](O)CO)[C@@H](C)O[C@@H]1O[C@@H](C)[C@@H](O)C(O)C1O (some centres not stated),500,–
CCOC(=O)[C@@H](NC(=O)C(CO)(CO)NC(=O)CCCC(=O)O)[C@@H](C)O[C@@H]1O[C@@H](C)[C@@H](O)C(O)C1O (some centres not stated),900,–
CC(=O)N[C@H]1[C@H]([C@H](O)[C@H](O)CO)O[C@@](O[C@H]2[C@@H](O)[C@@H](CO)O[C@@H](O[C@@H]([C@H](O[C@@H]3O[C@@H](C)[C@@H](O)[C@@H](O)[C@@H]3O)[C@H](C=O)NC(C)=O)[C@H](O)CO)[C@@H]2O)(C(=O)O)C[C@@H]1O [SIALYL LEWIS X],–,500
CCCCCCCCCCCCCCCCOC(=O)CC[C@H](NCCOCCOCCNC(=O)[C@@H](NC(=O)[C@H]1C[C@H](O)CN1C(=O)CCCC(=O)O)[C@@H](C)O[C@@H]1O[C@@H](C)[C@@H](O)C(O)C1O)C(=O)OCCCCCCCCCCCCCCCC (some centres not stated),500,–
CCOC(=O)[C@@H](NC(=O)[C@H]1C[C@H](O)CN1C(=O)CCCC(=O)O)[C@@H](C)O[C@@H]1O[C@@H](C)[C@@H](O)C(O)C1O (some centres not stated),100,–
CCOC(=O)[C@@H](NC(=O)[C@@H]1C[C@H](O)CN1C(=O)CCCC(=O)O)[C@@H](C)O[C@@H]1O[C@@H](C)[C@@H](O)C(O)C1O (some centres not stated),1000,–
